Source: publication PMC12381781, “Structural and functional insights into the selective inhibition of mutant tau aggregation by purpurin and oleocanthal in frontotemporal dementia” (Protein Science : A Publication of the Protein Society, 2025)

Assays:
R2R3 (N279K) tau peptide = R2R3 (N279K) tau peptide (Homo sapiens, UniProt P10636, N596K); experiment: ThT aggregation assay of monomeric R2R3 (N279K) peptide; type: biochemical; settings: for ThT-stained aggregates, confocal imaging: R2R3 N279K, end of ThT assay
R2R3 (N279K) tau peptide, sequence (P10636 592-653 N596K): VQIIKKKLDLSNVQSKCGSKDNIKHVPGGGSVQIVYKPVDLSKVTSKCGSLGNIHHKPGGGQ
Method: The aggregation kinetics of tau peptides were monitored using a ThT assay. A 40 μL reaction mixture containing 15 μM ThT (Sigma‐Aldrich, Cat. # T3516‐5G) and 50 μM peptide in the absence (control) or presence of 0.1 μM, 1 μM, and 10 μM PUR or OLC was prepared on ice in aggregation buffer (20 mM Tris [pH 7.4], 100 mM NaCl, 1 mM ethylenediaminetetraacetic acid [EDTA]) containing 5 μM heparin (Sigma‐Aldrich, Cat. #H4784). dithiothreitol (DTT) was excluded to avoid its differential effects on the aggregation kinetics of tau peptides containing Cys291 or Cys322 and to prevent peroxide generation by redox‐active compounds like PUR, which can lead to oxidative artifacts and false‐positive inhibition signals, as reported in our previous study (Annadurai, Malina, Salmona, et al., [2022]). This mixture was then dispensed into a clear‐bottom, black 384‐well ViewPlate (Revvity, Waltham, MA, United States; Part # 6007460) and sealed with a TopSealA‐PLUS (Revvity) to prevent evaporation.
Aggregation was monitored using EnSpire Multimode Plate Reader (Revvity) at 37°C with constant agitation (1000 rpm). To minimize condensation, the upper heater temperature was set to 2°C higher than the lower heater temperature. ThT fluorescence (ThT—λ ex: 460–490 nm and λem: 500–550 nm) was recorded every 5–10 min for 48 h.
ThT fluorescence curves were fitted to a sigmoidal function in GraphPad Prism (version 10, San Diego, CA, USA) using the following equation:
Y=Top/1+expV50–X/Slope , where Y is the ThT fluorescence intensity, X is time (h), Top is the maximum fluorescence intensity, V50 is the time to reach 50% of Top, and Slope describes the steepness of the aggregation transition. Baseline fluorescence at the start of the measurements was relatively low across samples and was not separately fitted. In samples showing early increases in fluorescence, the aggregation trajectory was modeled directly without introducing an independent baseline parameter.
The V50 value obtained from each replicate was used as the aggregation t 1/2 for statistical analysis.
To evaluate the effect of compounds on the extent of aggregation, the AUC was calculated for each replicate ThT fluorescence curve using GraphPad Prism. AUC values were then normalized to the mean AUC of the untreated control group and expressed as “aggregation (% of control),” serving as an indirect and comparative measure of fibril formation.
Figure S11. Confocal imaging of ThT-stained aggregates formed in the presence of PUR and OLC (corresponding to Figure 3). At the end of the ThT aggregation assay, reaction mixtures containing WT or mutant R2R3 tau peptides (P301L, V287I, N279K), incubated in the absence (CTL) or presence of 10 µM PUR or OLC, were collected from assay wells, embedded in 0.05% low-melting agarose, and imaged. ThT fluorescence was acquired using a Yokogawa Cell Voyager 7000S high-content imaging system equipped with a 20× objective (Ex: 460–490 nm, Em: 500–550 nm) and analyzed with Signals Image Artist (Revvity). […] Scale bar: 20 μm.

[1] = tested on: preformed R2R3 (V287I) fibrils; experiment: Elongation of preformed R2R3 (V287I) fibrils, ThT; type: biochemical; settings: R2R3 V287I pre-aggregated 24 h, compound 10 μM
Method: Peptides were pre‐aggregated for 24 h with aggregation kinetics monitored by ThT fluorescence, after which 10 μM PUR or OLC was added, followed by an additional 24–30 h of incubation (Figure 4a). Aggregation kinetics was monitored by ThT fluorescence, and elongation was quantified as the AUC following compound addition, normalized to each replicate's maximum pre‐treatment fluorescence (Figure 4b). […] WT peptide fibril elongation was reduced to 15.5 ± 2.8% (PUR) and 45.2 ± 3.2% (OLC), and P301L peptide fibril elongation was limited to 31.8 ± 0.6% (PUR) and 85.6 ± 2.2% (OLC) (Figure 4b). Fluorescence microscopy imaging further confirmed the presence of reduced ThT‐positive aggregates following the addition of PUR and OLC (Figure S12). Similar inhibition trends, with PUR outperforming OLC, were also observed for V287I and N279K peptides (Figure S12).
Figure S13. […] (a) ThT fluorescence kinetics of pre-aggregated R2R3 (V287I and N279K ) tau peptides treated with PUR or OLC (10 µM). Peptides were first allowed to aggregate for 24 h, followed by compound addition and continued incubation for an additional 24-30 h. […] Curves are normalized to each replicate’s maximum pre-treatment ThT fluorescence. […] (b) Aggregation levels post-treatment, expressed as a percentage of control (untreated fibrils), calculated from the AUC after compound addition. […]

How did the “aggregation (% of control), AUC of ThT fluorescence” value (R2R3 (N279K) tau peptide; R2R3 N279K 50 μM, compound 0.1 μM) turn out when `C/C=C(/C=O)[C@@H](CC=O)CC(=O)OCCc1ccc(O)cc1` [OLC, oleocanthal] was run?
The value was 74%.

And the “aggregation (% of control), AUC of ThT fluorescence” value (R2R3 (N279K) tau peptide; R2R3 N279K 50 μM, compound 1 μM)?
Its value is 61%.

And the “aggregation, ThT fluorescence” value (R2R3 (N279K) tau peptide; R2R3 N279K 50 μM, compound 10 μM)?
Its value is “complete aggregation suppression”.

And the “ThT-stained aggregates, confocal imaging” value (R2R3 (N279K) tau peptide; compound 10 μM)?
Its value is “marked reduction in ThT signal”.

What about the “elongation of preformed fibrils” value [1] of the same compound?
The value was “inhibit the elongation”.

What does the source list for `O=C1c2ccccc2C(=O)c2c(O)c(O)cc(O)c21` [PUR, purpurin]?
remaining activity at 0.1 µM (R2R3 (N279K) tau peptide; R2R3 N279K 50 μM, compound 0.1 μM, read-out: aggregation (% of control), AUC of ThT fluorescence): 44%; remaining activity at 1 µM (R2R3 (N279K) tau peptide; R2R3 N279K 50 μM, compound 1 μM, read-out: aggregation (% of control), AUC of ThT fluorescence): 19%; ThT-stained aggregates, confocal imaging (R2R3 (N279K) tau peptide; compound 10 μM): marked reduction in ThT signal; elongation of preformed fibrils [1]: inhibit the elongation
